Results reported in patent publication US20160002248A1, “GLS1 INHIBITORS FOR TREATING DISEASE” (Board of Regents, The University of Texas System, priority 2014, published 2016).

Legend:
A549 cells = assay: Proliferation Assay (A549 cell viability, Cell Titer Fluor); type: cell-based; conditions: Homo sapiens, 72 hours
Outline: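 Fluorescence read-out (Cell Titer Fluor, 30 min at 37 °C after reagent) after 72 h compound exposure of A549 cells; EC50 by four-parameter logistic curve fit. Cells: 1000/well, RPMI 1640 + 10% dialyzed FBS, 0.5% DMSO final.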

[1] = molecular target: T1, purified recombinant human GAC (GLS1) (Homo sapiens, UniProt O94925); assay: GLS1 Enzymatic Activity Assay (dual-coupled enzymatic assay); type: biochemical
T1 sequence (O94925 55-598 isoform O94925-3 limits assumed): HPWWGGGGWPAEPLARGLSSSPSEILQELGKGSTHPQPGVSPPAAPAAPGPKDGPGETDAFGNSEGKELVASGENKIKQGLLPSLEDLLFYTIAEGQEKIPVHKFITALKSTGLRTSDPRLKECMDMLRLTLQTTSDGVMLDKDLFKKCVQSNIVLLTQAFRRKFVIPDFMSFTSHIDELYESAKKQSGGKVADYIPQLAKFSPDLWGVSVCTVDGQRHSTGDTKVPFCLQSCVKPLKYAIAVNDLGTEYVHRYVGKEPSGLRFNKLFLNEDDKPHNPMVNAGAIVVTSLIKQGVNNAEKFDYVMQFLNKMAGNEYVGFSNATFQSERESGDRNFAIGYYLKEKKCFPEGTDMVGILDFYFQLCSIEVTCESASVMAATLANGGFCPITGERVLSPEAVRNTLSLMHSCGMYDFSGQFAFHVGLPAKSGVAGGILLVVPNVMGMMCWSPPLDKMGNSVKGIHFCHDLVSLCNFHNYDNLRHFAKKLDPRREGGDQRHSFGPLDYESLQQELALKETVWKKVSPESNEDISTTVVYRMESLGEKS
Outline: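 In this coupled fluorometric format, phosphate-activated GAC (2 nM, 50 mM phosphate) is pre-exposed to compound for 10 min before 1 mM glutamine addition. Product is tracked as resorufin (530/590 nm) over time or at 20 min, and potency is derived by logistic fitting.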

SMILES	EC50 (A549 cells) [nM]	IC50 [1] [nM]
COC(C)(C)CNC(=O)c1nnc(CCCCc2cc3cc(Cc4ccccc4)[nH]c3nn2)s1 [Example 84, 5-(4-{6-benzyl-7H-pyrrolo[2,3-c]pyridazin-3-yl}butyl)-N-(2-methoxy-2-methylpropyl)-1,3,4-thiadiazole-2-carboxamide]	500 to 5000	100 to 500
O=C(Nc1nnc(CCCCc2cc3cc(C4CC4)[nH]c3nn2)s1)[C@@H](O)c1ccccc1 [Example 8, (S)—N-(5-(4-(6-Cyclopropyl-7H-pyrrolo[2,3-c]pyridazin-3-yl)butyl)-1,3,4-thiadiazol-2-yl)-2-hydroxy-2-phenylacetamide]	500 to 5000	< 100
O=C(NCc1cccc(OC(F)(F)F)c1)c1cn(CCCCc2cc3c(-c4ccccn4)c(C4CC4)[nH]c3nn2)nn1 [Example 143, 1-{4-[6-cyclopropyl-5-(pyridin-2-yl)-7H-pyrrolo[2,3-c]pyridazin-3-yl]butyl}-N-{[3-(trifluoromethoxy)phenyl]methyl}-1H-1,2,3-triazole-4-carboxamide]	< 100	< 100
O=C(NCc1cc(OC(F)(F)F)ccc1F)c1cn(CCCCc2cc3c(-c4ccncc4)c(C4CC4)[nH]c3nn2)nn1 [Example 128, 1-{4-[6-cyclopropyl-5-(pyridin-4-yl)-7H-pyrrolo[2,3-c]pyridazin-3-yl]butyl)-N-{[2-fluoro-5-(trifluoromethoxy)phenyl]methyl}-1H-1,2,3-triazole-4-carboxamide]	< 100	< 100
O=C(Cc1ccccc1)Nc1ccn(CCCCc2cc3cc(C4CC4)[nH]c3nn2)c(=O)c1 [Example 29, N-[1-(4-{6-cyclopropyl-7H-pyrrolo[2,3-c]pyridazin-3-yl}butyl)-2-oxo-1,2-dihydropyridin-4-yl]-2-phenylacetamide]	500 to 5000	100 to 500
O=C(NCc1ccc(Cl)nc1)c1cn(CCCCc2cc3cc(C4CC4)[nH]c3nn2)nn1 [Example 41, N-[(6-chloropyridin-3-yl)methyl]-1-(4-{6-cyclopropyl-7H-pyrrolo[2,3-c]pyridazin-3-yl}butyl)-1H-1,2,3-triazole-4-carboxamide]	500 to 5000	100 to 500
Cc1ccc(CNC(=O)c2cn(CCCCc3cc4c(C#N)c(C5CC5)[nH]c4nn3)nn2)cn1 [Example 112, 1-(4-{5-cyano-6-cyclopropyl-7H-pyrrolo[2,3-c]pyridazin-3-yl}butyl)-N-[(6-methylpyridin-3-yl)methyl]-1H-1,2,3-triazole-4-carboxamide]	500 to 5000	< 100
CC(C)(C)OC(=O)N1CC(c2cc3cc(CCCCn4cc(C(=O)NCc5cc(OC(F)(F)F)ccc5F)nn4)nnc3[nH]2)C1 [Example 111, tert-butyl 3-(3-(4-(4-((2-fluoro-5-(trifluoromethoxy)benzyl)carbamoyl)-1H-1,2,3-triazol-1-yl)butyl)-7H-pyrrolo[2,3-c]pyridazin-6-yl)azetidine-1-carboxylate]	< 100	< 100
Cc1ccc(CNC(=O)c2cn(CCCCc3cc4cc(C5CN(C(=O)OC(C)(C)C)C5)[nH]c4nn3)nn2)cn1 [Example 94, tert-butyl 3-{3-[4-(4-{[(6-methylpyridin-3-yl)methyl]carbamoyl}-1H-1,2,3-triazol-1-yl)butyl]-7H-pyrrolo[2,3-c]pyridazin-6-yl}azetidine-1-carboxylate]	100 to 500	< 100
O=C(Nc1nnc(CCCCc2cc3cc(Cc4ccccc4)[nH]c3nn2)s1)[C@@H](O)c1ccccc1 [Example 5, (S)—N-(5-(4-(6-benzyl-7H-pyrrolo[2,3-c]pyridazin-3-yl)butyl)-1,3,4-thiadiazol-2-yl)-2-hydroxy-2-phenylacetamide]	100 to 500	< 100
CC(C)(O)c1ccc(CNC(=O)c2cn(CCCCc3cc4cc(C5CC5)[nH]c4nn3)nn2)cn1 [Example 86, 1-(4-{6-cyclopropyl-7H-pyrrolo[2,3-c]pyridazin-3-yl}butyl)-N-{[6-(2-hydroxypropan-2-yl)pyridin-3-yl]methyl}-1H-1,2,3-triazole-4-carboxamide]	100 to 500	< 100
O=C(NCc1ccccn1)c1cn(CCCCc2cc3c(-c4ccc(F)cc4)c(C4CC4)[nH]c3nn2)nn1 [Example 125, 1-{4-[6-cyclopropyl-5-(4-fluorophenyl)-7H-pyrrolo[2,3-c]pyridazin-3-yl]butyl}-N-(pyridin-2-ylmethyl)-1H-1,2,3-triazole-4-carboxamide]	100 to 500	< 100

Second part, the compound after the results:

EC50 (A549 cells) [nM]	IC50 [1] [nM]	SMILES
500 to 5000	< 100	COc1ncc(-c2c(C3CC3)[nH]c3nnc(CCCCn4cc(C(=O)NCc5ccc(C)nc5)nn4)cc23)c(OC)n1 [Example 168, 1-{4-[6-cyclopropyl-5-(2,4-dimethoxypyrimidin-5-yl)-7H-pyrrolo[2,3-c]pyridazin-3-yl]butyl}-N-[(6-methylpyridin-3-yl)methyl]-1H-1,2,3-triazole-4-carboxamide]
< 100	< 100	O=C(NCc1cc(OC(F)(F)F)ccc1F)c1cn(CCCCc2cc3cc(C4CN(C(=O)C5CCC5)C4)[nH]c3nn2)nn1 [Example 223, 1-{4-[6-(1-cyclobutanecarbonylazetidin-3-yl)-7H-pyrrolo[2,3-c]pyridazin-3-yl]butyl}-N-{[2-fluoro-5-(trifluoromethoxy)phenyl]methyl}-1H-1,2,3-triazole-4-carboxamide]
100 to 500	< 100	O=C(NCc1ccc(C(F)(F)F)nc1)c1cn(CCCCc2cc3c(-c4ccoc4)c(C4CC4)[nH]c3nn2)nn1 [Example 188, 1-{4-[6-cyclopropyl-5-(furan-3-yl)-7H-pyrrolo[2,3-c]pyridazin-3-yl]butyl}-N-{[6-(trifluoromethyl)pyridin-3-yl]methyl}-1H-1,2,3-triazole-4-carboxamide]
500 to 5000	< 100	CC(=O)Nc1ccc(-c2c(C3CC3)[nH]c3nnc(CCCCn4cc(C(=O)NCc5cccc(OC(F)(F)F)c5)nn4)cc23)cc1 [Example 180, 1-{4-[6-cyclopropyl-5-(4-acetamidophenyl)-7H-pyrrolo[2,3-c]pyridazin-3-yl]butyl}-N-{[3-(trifluoromethoxy)phenyl]methyl}-1H-1,2,3-triazole-4-carboxamide]
100 to 500	< 100	Cc1ccc(CNC(=O)c2cn(CCCCc3cc4c(-c5cccc(C(F)(F)F)c5)c(C5CC5)[nH]c4nn3)nn2)cn1 [Example 167, 1-(4-{6-cyclopropyl-5-[3-(trifluoromethyl)phenyl]-7H-pyrrolo[2,3-c]pyridazin-3-yl}butyl)-N-[(6-methylpyridin-3-yl)methyl]-1H-1,2,3-triazole-4-carboxamide]
100 to 500	< 100	COc1cccc(-c2cc3cc(CCCCn4cc(C(=O)NCc5ccc(C)nc5)nn4)nnc3[nH]2)c1 [Example 176, 1-{4-[6-(3-methoxyphenyl)-7H-pyrrolo[2,3-c]pyridazin-3-yl]butyl}-N-[(6-methylpyridin-3-yl)methyl]-1H-1,2,3-triazole-4-carboxamide]
100 to 500	< 100	Cc1ccc(CNC(=O)c2cn(CCCCc3cc4cc(-c5ccccc5Cl)[nH]c4nn3)nn2)cn1 [Example 236, 1-{4-[6-(2-chlorophenyl)-7H-pyrrolo[2,3-c]pyridazin-3-yl]butyl}-N-[(6-methylpyridin-3-yl)methyl]-1H-1,2,3-triazole-4-carboxamide]
< 100	< 100	O=C(NCc1cc(OC(F)(F)F)ccc1F)c1cn(CCCCc2cc3cc(C4CN(S(=O)(=O)C(F)(F)F)C4)[nH]c3nn2)nn1 [Example 234, N-{[2-fluoro-5-(trifluoromethoxy)phenyl]methyl}-1-{4-[6-(1-trifluoromethanesulfonyl-azetidin-3-yl)-7H-pyrrolo[2,3-c]pyridazin-3-yl]butyl}-1H-1,2,3-triazole-4-carboxamide]
100 to 500	< 100	O=C(NCc1cccc(C(F)(F)F)n1)c1cn(CCCCc2cc3c(-c4ccc(F)cc4F)c(C4CC4)[nH]c3nn2)nn1 [Example 220, 1-{4-[6-cyclopropyl-5-(2,4-difluorophenyl)-7H-pyrrolo[2,3-c]pyridazin-3-yl]butyl}-N-{[6-(trifluoromethyl)pyridin-2-yl]methyl}-1H-1,2,3-triazole-4-carboxamide]
100 to 500	< 100	Cc1ccc(CNC(=O)c2cn(CCCCc3cc4cc(-c5cccc(F)c5)[nH]c4nn3)nn2)cn1 [Example 202, 1-{4-[6-(3-fluorophenyl)-7H-pyrrolo[2,3-c]pyridazin-3-yl]butyl}-N-[(6-methylpyridin-3-yl)methyl]-1H-1,2,3-triazole-4-carboxamide]
100 to 500	< 100	Cc1ccc(CNC(=O)c2cn(CCCCc3cc4c(-c5ccc(C(F)(F)F)cc5)c(C5CC5)[nH]c4nn3)nn2)cn1 [Example 163, 1-(4-{6-cyclopropyl-5-[4-(trifluoromethyl)phenyl]-7H-pyrrolo[2,3-c]pyridazin-3-yl}butyl)-N-[(6-methylpyridin-3-yl)methyl]-1H-1,2,3-triazole-4-carboxamide]
